ChEMBL document CHEMBL4011591, “Discovery and pharmacological evaluation of a novel series of adamantyl cyanoguanidines as P2X7 receptor antagonists” (Eur J Med Chem, 2017)
Values belong to the compound of their own block, whether it stands above or below them. The source made the active and inactive calls. The calls are words filed in the database; no cut-off is given here.

How the values were obtained:
[1] = molecular target: T1, P2X purinoceptor 7 (Homo sapiens, UniProt Q99572); test: Antagonist activity at P2X7 receptor in human THP1 cells assessed as inhibition of BzATP-induced YO-PRO-1 Iodide uptake measured every 30 secs for 1 hr by fluorescence assay; assay type: cell-based
T1 sequence (Q99572 whole entry): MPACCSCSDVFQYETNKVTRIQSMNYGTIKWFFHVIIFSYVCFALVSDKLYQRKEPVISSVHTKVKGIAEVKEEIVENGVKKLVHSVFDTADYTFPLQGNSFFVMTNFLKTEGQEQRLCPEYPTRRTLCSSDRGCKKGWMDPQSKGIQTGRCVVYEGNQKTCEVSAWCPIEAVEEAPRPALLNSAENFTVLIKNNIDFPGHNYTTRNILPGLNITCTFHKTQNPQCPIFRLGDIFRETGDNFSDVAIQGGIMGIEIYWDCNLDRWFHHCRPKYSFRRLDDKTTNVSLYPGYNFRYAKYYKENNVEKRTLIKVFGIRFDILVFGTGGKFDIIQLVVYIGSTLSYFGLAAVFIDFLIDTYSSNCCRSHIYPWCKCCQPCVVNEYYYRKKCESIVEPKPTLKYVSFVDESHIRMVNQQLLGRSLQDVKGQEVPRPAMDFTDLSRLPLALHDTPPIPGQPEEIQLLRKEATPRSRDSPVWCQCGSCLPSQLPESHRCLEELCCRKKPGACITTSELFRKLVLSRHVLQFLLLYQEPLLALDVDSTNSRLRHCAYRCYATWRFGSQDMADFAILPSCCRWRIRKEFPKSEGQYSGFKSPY

[2] = molecular target: T1, P2X purinoceptor 7; test: Antagonist activity at P2X7 receptor in LPS-stimulated human THP1 cells assessed as inhibition of LPS/BzATP-induced IL-1beta release preincubated for 30 mins followed by BzATP addition measured after 30 mins by ELISA
[3] = molecular target: T2, P2X purinoceptor 7 (Homo sapiens) (UniProt Q99572); test: Ratio of IC50 for P2X7 receptor in human THP1 cells assessed as inhibition of BzATP-induced YO-PRO-1 Iodide uptake to IC50 for P2X7 receptor in LPS-stimulated human THP1 cells assessed as inhibition of LPS/BzATP-induced IL-1beta release; assay type: cell-based
T2 sequence (whole entry): T1 sequence (Q99572 whole entry)

[4] = system: Mus musculus; test: Toxicity in Balb-C mouse assessed as behavior changes at 0.1 to 1 mg/kg, ip measured after 48 hrs; assay type: organism-based; conditions: in vivo
[5] = system: Mus musculus; test: Anti-depressant like activity in wild-type Balb-C mouse assessed as reduction in duration of immobility at 1 mg/kg, ip administered 15 to 30 mins prior to the testing measured on day 3 post dose by force swim test; assay type: functional, organism-based
[6] = Plasma concentration in Balb-C mouse at 2 mg/kg, iv administered as bolus dose measured after 5.8 mins by LC-MS analysis; assay type: ADME, organism-based
[7] = Plasma concentration in Balb-C mouse at 2 mg/kg, iv administered as bolus dose measured after 6 mins by LC-MS analysis; assay type: ADME, organism-based
[8] = Plasma concentration in Balb-C mouse at 2 mg/kg, iv administered as bolus dose measured after 2.5 mins by LC-MS analysis; assay type: ADME, organism-based
[9] = Plasma concentration in Balb-C mouse at 2 mg/kg, iv administered as bolus dose measured after 2.2 mins by LC-MS analysis; assay type: ADME, organism-based
[10] = Plasma concentration in Balb-C mouse at 2 mg/kg, iv administered as bolus dose measured after 10 mins by LC-MS analysis; assay type: ADME, organism-based
[11] = Plasma concentration in Balb-C mouse at 2 mg/kg, iv administered as bolus dose measured after 10.1 mins by LC-MS analysis; assay type: ADME, organism-based
[12] = Plasma concentration in Balb-C mouse at 2 mg/kg, iv administered as bolus dose measured after 15 mins by LC-MS analysis; assay type: ADME, organism-based
[13] = Plasma concentration in Balb-C mouse at 2 mg/kg, iv administered as bolus dose measured after 23 mins by LC-MS analysis; assay type: ADME, organism-based
[14] = Plasma concentration in Balb-C mouse at 2 mg/kg, iv administered as bolus dose measured after 37 mins by LC-MS analysis; assay type: ADME, organism-based
[15] = Plasma concentration in Balb-C mouse at 2 mg/kg, iv administered as bolus dose measured after 39 mins by LC-MS analysis; assay type: ADME, organism-based
[16] = Plasma concentration in Balb-C mouse at 2 mg/kg, iv administered as bolus dose measured after 58 mins by LC-MS analysis; assay type: ADME, organism-based
[17] = Plasma concentration in Balb-C mouse at 2 mg/kg, iv administered as bolus dose measured after 63 mins by LC-MS analysis; assay type: ADME, organism-based
[18] = Plasma concentration in Balb-C mouse at 2 mg/kg, iv administered as bolus dose measured after 76 mins by LC-MS analysis; assay type: ADME, organism-based
[19] = Plasma concentration in Balb-C mouse at 10 mg/kg, po measured after 21 mins by LC-MS analysis; assay type: ADME, organism-based
[20] = Plasma concentration in Balb-C mouse at 10 mg/kg, po measured after 30 mins by LC-MS analysis; assay type: ADME, organism-based
[21] = Plasma concentration in Balb-C mouse at 10 mg/kg, po measured after 33 mins by LC-MS analysis; assay type: ADME, organism-based
[22] = Plasma concentration in Balb-C mouse at 10 mg/kg, po measured after 62 mins by LC-MS analysis; assay type: ADME, organism-based
[23] = Cmax in Balb-C mouse at 2 mg/kg, iv administered as bolus dose by LC-MS method; assay type: ADME, organism-based; set-up: dose 2 mg/kg, route intravenous; conditions: in vivo
[24] = Tmax in Balb-C mouse at 2 mg/kg, iv administered as bolus dose by LC-MS method; assay type: ADME, organism-based; conditions: in vivo
[25] = Half life in Balb-C mouse at 2 mg/kg, iv administered as bolus dose by LC-MS method; assay type: ADME, organism-based; conditions: in vivo
[26] = AUC (0 to infinity) in Balb-C mouse at 2 mg/kg, iv administered as bolus dose by LC-MS method; assay type: ADME, organism-based; set-up: dose 2 mg/kg, time infinity, route intravenous; conditions: in vivo
[27] = MRT (0 to infinity) in Balb-C mouse at 2 mg/kg, iv administered as bolus dose by LC-MS method; assay type: ADME, organism-based; conditions: in vivo
[28] = Clearance in Balb-C mouse at 2 mg/kg, iv administered as bolus dose by LC-MS method; assay type: ADME, organism-based; conditions: in vivo
[29] = Volume of distribution in Balb-C mouse at 2 mg/kg, iv administered as bolus dose by LC-MS method; assay type: ADME, organism-based; conditions: in vivo
[30] = Terminal elimination rate constant in Balb-C mouse at 2 mg/kg, iv administered as bolus dose by LC-MS method; assay type: ADME, organism-based; conditions: in vivo, read-out: LZ (converted)
[31] = AUC (0 to t) in Balb-C mouse at 2 mg/kg, iv administered as bolus dose by LC-MS method; assay type: ADME, organism-based; conditions: in vivo
[32] = system: Mus musculus; test: Toxicity in Balb-C mouse assessed as abnormal behavior at 0.1 to 1 mg/kg, ip measured after 30 mins; assay type: organism-based; conditions: in vivo, 0.5 h
[33] = system: Mus musculus; test: Toxicity in Balb-C mouse assessed as psychological changes at 0.1 to 1 mg/kg, ip measured after 48 hrs; assay type: organism-based; conditions: in vivo
[34] = Solubility of the compound in 8% ethanol/8% polysorbate80/84% saline formulation; assay type: physicochemical; conditions: buffer
[35] = Cmax in Balb-C mouse at 1 mg/kg, iv administered as bolus dose by LC-MS method; assay type: ADME, organism-based; set-up: dose 1 mg/kg, route intravenous; conditions: in vivo
[36] = Tmax in Balb-C mouse at 1 mg/kg, iv administered as bolus dose by LC-MS method; assay type: ADME, organism-based; conditions: in vivo
[37] = Half life in CD-1 mouse at 3 mg/kg, po administered as single dose via gavage by HPLC-MS/MS; assay type: ADME, organism-based; conditions: in vivo

Structure (SMILES): COc1ccc(N/C(=N/C#N)NCC23CC4CC(CC(C4)C2)C3)cc1
IC50 [1]: 562 nM

Structure (SMILES): N#C/N=C(\NCC12CC3CC(CC(C3)C1)C2)Nc1cccc(F)c1
IC50 [1]: 186 nM

Structure (SMILES): N#C/N=C(\NCC12CC3CC(CC(C3)C1)C2)Nc1ccccn1
IC50 [1]: > 10000 nM

Structure (SMILES): N#C/N=C(/NCc1cccc(F)c1)NCC12CC3CC(CC(C3)C1)C2
IC50 [1]: 708 nM | IC50 [2]: 132 nM | Ratio IC50 [3]: 5.4

Structure (SMILES): N#C/N=C(/NCc1ccccc1)NC12CC3CC(CC(C3)C1)C2
IC50 [1]: > 10000 nM

Structure (SMILES): N#C/N=C(/NCc1ccccn1)NCC12CC3CC(CC(C3)C1)C2
IC50 [1]: 234 nM | IC50 [2]: 138 nM | Ratio IC50 [3]: 1.7

Structure (SMILES): N#C/N=C(\NCC12CC3CC(CC(C3)C1)C2)Nc1cccnc1
IC50 [1]: 214 nM

Structure (SMILES): N#C/N=C(/NCCc1ccccc1)NC12CC3CC(CC(C3)C1)C2
IC50 [1]: > 10000 nM

Structure (SMILES): N#C/N=C(\NCCC12CC3CC(CC(C3)C1)C2)Nc1ccccc1
IC50 [1]: > 10000 nM

Structure (SMILES): c1cnc2cc3c(cc2n1)[C@@H]1CNC[C@H]3C1 [VARENICLINE]
half-life [37]: 84 min

Now from value to compound, other results behind:

IC50 [1]: 58 nM
Structure (SMILES): N#C/N=C(\NCC12CC3CC(CC(C3)C1)C2)Nc1ccccc1F

IC50 [1]: 58 nM
Structure (SMILES): COc1cccc(N/C(=N/C#N)NCC23CC4CC(CC(C4)C2)C3)c1

IC50 [1]: 100 nM
Structure (SMILES): N#C/N=C(\NCC12CC3CC(CC(C3)C1)C2)Nc1ccccc1

IC50 [1]: 69 nM | IC50 [2]: 40 nM | Ratio IC50 [3]: 1.7 | concentration at 348 s [6]: 523 ng/mL | concentration at 0.1 h [7]: 766 ng/mL | concentration at 2.5 min [8]: 1180 ng/mL | concentration at 132 s [9]: 687 ng/mL | concentration at 10 min [10]: 365 ng/mL | concentration at 0.168333 h [11]: 332 ng/mL | concentration at 0.25 h [12]: 461 ng/mL | concentration at 23 min [13]: 220 ng/mL | concentration at 37 min [14]: 123 ng/mL | concentration at 0.65 h [15]: 160 ng/mL | concentration at 58 min [16]: 52 ng/mL | concentration at 1.05 h [17]: 31 ng/mL | concentration at 76 min [18]: 12 ng/mL | concentration at 0.35 h [19]: 44 ng/mL | concentration at 0.5 h [20]: 39 ng/mL | concentration at 0.55 h [21]: 23 ng/mL | concentration at 62 min [22]: 5.8 ng/mL | Cmax [23]: 3.65 µM | Tmax [24]: 2.5 min | half-life [25]: 13.2 min | AUC(0-inf) [26]: 0.88 µM·h | MRT inf [27]: 18.6 min | clearance [28]: 117 mL/min/kg | Vd [29]: 2.2 L/kg | k el [30]: 0.000886 s⁻¹ | AUC(0-t) [31]: 0.87 µM·h | solubility [34]: Insoluble | Cmax [35]: 912 nM | Tmax [36]: 20 to 30 min
Structure (SMILES): N#C/N=C(/NCc1cccnc1)NCC12CC3CC(CC(C3)C1)C2
Activity [4]: Non-Toxic | Activity [5]: Active | Activity [32]: Non-Toxic | Activity [33]: Non-Toxic
